One data set deals with T1, histamine-H2 -receptors (Cavia porcellus, UniProt P47747).
T1 construct: in vitro on the isolated atrium of guinea pigs; from tissue; host or cells: isolated atrium of guinea pigs
Briefly: H2-antagonistic activity: pA2 values in vitro on the isolated atrium of guinea pigs. An excerpt: J. Pharmacol. Chemother.", 27, 427 (1966) and Black et al., "Nature", 236, 385 (1971)].
A recognized method of measuring H2 -antagonistic activity is based on determination of the pA2 -values in vitro on the isolated atrium of guinea pigs

For data set [1] the following is noted: background statement; result in words; cited from earlier work.

T1 sequence (P47747 whole entry): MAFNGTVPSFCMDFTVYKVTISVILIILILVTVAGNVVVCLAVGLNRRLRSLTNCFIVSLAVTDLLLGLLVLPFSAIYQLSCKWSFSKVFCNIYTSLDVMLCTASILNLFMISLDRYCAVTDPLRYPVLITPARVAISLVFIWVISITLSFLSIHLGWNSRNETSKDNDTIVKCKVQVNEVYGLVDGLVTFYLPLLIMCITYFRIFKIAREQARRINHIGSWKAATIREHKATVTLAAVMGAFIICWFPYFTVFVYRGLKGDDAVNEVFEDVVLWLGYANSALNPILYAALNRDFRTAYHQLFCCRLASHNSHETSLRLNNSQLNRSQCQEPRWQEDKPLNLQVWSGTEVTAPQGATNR

Turning to `Nc1c(NCC(O)COc2cccc(CN3CCCCC3)c2)c(=O)c1=O` (stereo not drawn) [Example 2, 2-amino-1-[2-hydroxy-3-[3-(1-piperidinylmethyl)-phenoxy]propyl]-aminocyclobut-1-ene-3,4-dione], the Kb at histamine-H2 -receptors is 72.4 nM. On to `CN/C(=N/CCSCc1nc[nH]c1C)NC#N` [Cimetidine], for which the half life result in data set [1] is reported as “relatively short half life”.

With `Nc1n[s+]([O-])nc1NCC(O)COc1cccc(CN2CCCCC2)c1` (stereo not drawn) [Example 1, 4-amino-3-[2-hydroxy-3-[3-(1-piperidinylmethyl)-phenoxy]propyl]-amino-1,2,5-thiadiazole-1-oxide], the Kb at histamine-H2 -receptors was 49 nM.

These data come from patent US4599346A, “Propan-2-ol derivatives, a process for their production and medicaments containing these compounds” (Ludwig Heumann & Co., GmbH, priority 1983, dated 1986).
